Assay results from PubChem BioAssay (NCI).
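Five concentrations, 48 hours, 96-well plates. GI50 marks 50% less growth. TGI is the concentration that stops growth completely.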

Assays:
Test in all cases: inhibition of tumour cell growth, NCI panel, 48 h
LOX IMVI melanoma = system: LOX IMVI melanoma
M14 melanoma = system: M14 melanoma
NCI-H23 lung = system: NCI-H23 lung
OVCAR-3 ovarian = system: OVCAR-3 ovarian
OVCAR-8 ovarian = system: OVCAR-8 ovarian
SF-268 CNS = system: SF-268 CNS
SK-MEL-2 melanoma = system: SK-MEL-2 melanoma
SK-MEL-28 melanoma = system: SK-MEL-28 melanoma
SN12C renal = system: SN12C renal
HS 578T breast = system: HS 578T breast

SMILES: O=C(/C=C/c1cc(O)ccc1O)c1ccc(Cl)cc1
- GI50 (LOX IMVI melanoma): 18.4 µM
- TGI (LOX IMVI melanoma): 48.4 µM
- GI50 (M14 melanoma): 19.8 µM
- TGI (M14 melanoma): 47.1 µM
- GI50 (NCI-H23 lung): 19.1 µM
- TGI (NCI-H23 lung): 43.3 µM
- GI50 (OVCAR-3 ovarian): 57.7 µM
- TGI (OVCAR-3 ovarian): > 100 µM
- GI50 (OVCAR-8 ovarian): 57.2 µM
- TGI (OVCAR-8 ovarian): > 100 µM
- GI50 (SF-268 CNS): 20.7 µM
- TGI (SF-268 CNS): > 100 µM
- GI50 (SK-MEL-2 melanoma): 60.7 µM
- TGI (SK-MEL-2 melanoma): > 100 µM
- GI50 (SK-MEL-28 melanoma): 60.4 µM
- TGI (SK-MEL-28 melanoma): > 100 µM
- GI50 (SN12C renal): 18.1 µM
- TGI (SN12C renal): 44.7 µM

SMILES: Cc1c(-c2cc(-c3ccccc3)n[nH]c2=O)c2ccccc2n1C
- TGI (M14 melanoma): > 100 µM
- TGI (NCI-H23 lung): > 100 µM
- TGI (OVCAR-3 ovarian): > 100 µM
- TGI (OVCAR-8 ovarian): > 100 µM
- TGI (SF-268 CNS): > 100 µM
- TGI (SK-MEL-2 melanoma): > 100 µM
- TGI (SK-MEL-28 melanoma): > 100 µM
- TGI (SN12C renal): > 100 µM

SMILES: Nc1ncnc2c1N=CN(Oc1ccccc1)N2
- TGI (M14 melanoma): > 100 µM
- TGI (NCI-H23 lung): > 100 µM
- TGI (OVCAR-3 ovarian): > 100 µM
- TGI (OVCAR-8 ovarian): > 100 µM
- TGI (SK-MEL-2 melanoma): > 100 µM
- TGI (SK-MEL-28 melanoma): > 100 µM
- TGI (SN12C renal): 43.7 µM

SMILES: CC(C)(C)[Si](C)(C)O/N=C\c1cccc(O[Si](C)(C)C(C)(C)C)c1
- TGI (LOX IMVI melanoma): 35.5 µM
- TGI (M14 melanoma): 29.4 µM
- TGI (OVCAR-3 ovarian): 29.8 µM
- TGI (OVCAR-8 ovarian): 39.6 µM
- TGI (SF-268 CNS): 38.5 µM
- TGI (SK-MEL-2 melanoma): 35.3 µM
- TGI (SN12C renal): 36.6 µM

SMILES: O=C1Nc2cc(-c3ccc(O)cc3)ccc2/C1=C/c1ccc[nH]1
- GI50 (LOX IMVI melanoma): 0.0481 µM
- TGI (LOX IMVI melanoma): 9.77 µM
- GI50 (M14 melanoma): 0.0974 µM
- TGI (M14 melanoma): > 100 µM
- GI50 (NCI-H23 lung): 0.0859 µM
- TGI (NCI-H23 lung): 2.81 µM
- GI50 (OVCAR-3 ovarian): 0.348 µM
- TGI (OVCAR-3 ovarian): 3.99 µM
- GI50 (OVCAR-8 ovarian): 0.524 µM
- TGI (OVCAR-8 ovarian): > 100 µM
- GI50 (SF-268 CNS): 0.44 µM
- TGI (SF-268 CNS): > 100 µM
- GI50 (SK-MEL-2 melanoma): 0.647 µM
- TGI (SK-MEL-2 melanoma): > 25.7 µM
- GI50 (SK-MEL-28 melanoma): 0.402 µM
- TGI (SK-MEL-28 melanoma): > 100 µM
- GI50 (SN12C renal): 0.609 µM
- TGI (SN12C renal): > 100 µM

SMILES: O=C(CC(=O)c1cccc2ccccc12)C(=O)Nc1nccs1
- TGI (LOX IMVI melanoma): > 100 µM
- TGI (M14 melanoma): > 100 µM
- TGI (NCI-H23 lung): > 100 µM
- TGI (OVCAR-3 ovarian): > 100 µM
- TGI (OVCAR-8 ovarian): > 100 µM
- TGI (SF-268 CNS): > 100 µM
- TGI (SK-MEL-2 melanoma): > 100 µM
- TGI (SK-MEL-28 melanoma): > 100 µM
- TGI (SN12C renal): > 100 µM

SMILES: CC/C(=N/O)C(C)C(=O)CCC(=O)Nc1ccc(Cl)cc1 (configuration not stated)
- TGI (LOX IMVI melanoma): > 100 µM
- TGI (M14 melanoma): > 100 µM
- TGI (NCI-H23 lung): > 100 µM
- TGI (OVCAR-3 ovarian): > 100 µM
- TGI (OVCAR-8 ovarian): > 100 µM
- TGI (SF-268 CNS): > 100 µM
- TGI (SK-MEL-2 melanoma): > 100 µM
- TGI (SK-MEL-28 melanoma): > 100 µM
- TGI (SN12C renal): > 100 µM

SMILES: CCN(CC)CCOc1ccccc1-n1c(C)ccc1-c1ccccc1
- GI50 (HS 578T breast): 12.8 µM
- TGI (HS 578T breast): 35.9 µM
- GI50 (LOX IMVI melanoma): 17.5 µM
- TGI (LOX IMVI melanoma): 34.5 µM
- GI50 (M14 melanoma): 17 µM
- TGI (M14 melanoma): 34.2 µM
- GI50 (NCI-H23 lung): 14.2 µM
- TGI (NCI-H23 lung): 29.9 µM
- GI50 (OVCAR-3 ovarian): 15.6 µM
- TGI (OVCAR-3 ovarian): 30.1 µM
- GI50 (OVCAR-8 ovarian): 16.7 µM
- TGI (OVCAR-8 ovarian): 33.4 µM
- GI50 (SF-268 CNS): 15.6 µM
- TGI (SF-268 CNS): 30.6 µM
- GI50 (SK-MEL-28 melanoma): 15.7 µM
- TGI (SK-MEL-28 melanoma): 29.7 µM
- GI50 (SN12C renal): 15.4 µM
- TGI (SN12C renal): 30.5 µM

SMILES: COc1ccccc1NC(=O)C1=C(C)NC(C)=C(C(=O)Nc2ccccc2OC)C1c1ccc(C2C(C(=O)Nc3ccccc3OC)=C(C)NC(C)=C2C(=O)Nc2ccccc2OC)cc1
- TGI (LOX IMVI melanoma): 2.67 µM
- TGI (M14 melanoma): 3.34 µM
- TGI (NCI-H23 lung): 7.52 µM
- TGI (OVCAR-3 ovarian): 6.08 µM
- TGI (OVCAR-8 ovarian): 7.52 µM
- TGI (SF-268 CNS): 11.6 µM
- TGI (SK-MEL-2 melanoma): 5.77 µM
- TGI (SK-MEL-28 melanoma): 6.45 µM
- TGI (SN12C renal): 3.69 µM

SMILES: Nc1ccccc1-n1c2c(c3ccccc3c1=O)C(=O)c1ccccc1-2
- TGI (LOX IMVI melanoma): > 100 µM
- TGI (M14 melanoma): > 100 µM
- TGI (NCI-H23 lung): 51.1 µM
- TGI (OVCAR-3 ovarian): 55.1 µM
- TGI (OVCAR-8 ovarian): 45.4 µM
- TGI (SF-268 CNS): 48.2 µM
- TGI (SK-MEL-2 melanoma): 52.8 µM
- TGI (SK-MEL-28 melanoma): > 100 µM
- TGI (SN12C renal): > 100 µM

SMILES: NC(=S)N/N=C1/C(=O)N(c2ccccc2)C(=O)C1C(=O)Nc1ccccc1 (configuration not stated)
- TGI (M14 melanoma): > 100 µM
- TGI (NCI-H23 lung): > 100 µM
- TGI (OVCAR-3 ovarian): > 100 µM
- TGI (OVCAR-8 ovarian): > 100 µM
- TGI (SF-268 CNS): > 100 µM
- TGI (SK-MEL-2 melanoma): > 100 µM
- TGI (SK-MEL-28 melanoma): > 100 µM
- TGI (SN12C renal): > 100 µM

SMILES: Cc1cccc(/C=N/N=C(\N)NO)n1
- TGI (LOX IMVI melanoma): 52.8 µM
- TGI (M14 melanoma): > 100 µM
- TGI (NCI-H23 lung): > 100 µM
- TGI (OVCAR-3 ovarian): > 100 µM
- TGI (OVCAR-8 ovarian): > 100 µM
- TGI (SF-268 CNS): > 100 µM
- TGI (SK-MEL-2 melanoma): > 100 µM
- TGI (SK-MEL-28 melanoma): > 100 µM
- TGI (SN12C renal): > 100 µM

SMILES: CCCCCCCCCCCc1cc(=O)c2c(O)cccc2o1
- TGI (LOX IMVI melanoma): > 100 µM
- TGI (M14 melanoma): > 100 µM
- TGI (NCI-H23 lung): > 100 µM
- TGI (OVCAR-3 ovarian): > 100 µM
- TGI (OVCAR-8 ovarian): > 100 µM
- TGI (SF-268 CNS): > 100 µM
- TGI (SK-MEL-2 melanoma): > 100 µM
- TGI (SK-MEL-28 melanoma): > 100 µM
- TGI (SN12C renal): > 100 µM

SMILES: COC(=O)CCC(=O)Nc1cc(C)ccc1C
- TGI (LOX IMVI melanoma): > 100 µM
- TGI (M14 melanoma): > 100 µM
- TGI (NCI-H23 lung): > 100 µM
- TGI (OVCAR-3 ovarian): > 100 µM
- TGI (OVCAR-8 ovarian): > 100 µM
- TGI (SK-MEL-2 melanoma): > 100 µM
- TGI (SK-MEL-28 melanoma): > 100 µM
- TGI (SN12C renal): > 100 µM

SMILES: CC1=CC[C@@H]2C(=O)C=CC=C[C@H]12.[C-]#[O+].[C-]#[O+].[C-]#[O+].[Fe]
- GI50 (LOX IMVI melanoma): > 100 µM
- TGI (LOX IMVI melanoma): > 100 µM
- GI50 (M14 melanoma): > 100 µM
- TGI (M14 melanoma): > 100 µM
- GI50 (NCI-H23 lung): > 100 µM
- TGI (NCI-H23 lung): > 100 µM
- GI50 (OVCAR-3 ovarian): > 100 µM
- TGI (OVCAR-3 ovarian): > 100 µM
- GI50 (OVCAR-8 ovarian): > 100 µM
- TGI (OVCAR-8 ovarian): > 100 µM
- GI50 (SK-MEL-2 melanoma): > 100 µM
- TGI (SK-MEL-2 melanoma): > 100 µM
- GI50 (SK-MEL-28 melanoma): > 100 µM
- TGI (SK-MEL-28 melanoma): > 100 µM
- GI50 (SN12C renal): > 100 µM
- TGI (SN12C renal): > 100 µM

SMILES: COc1ccccc1N1CCN(CC(O)Cn2c(=O)c3c(OC)nc(C)cc3c(=O)n2-c2ccccc2)CC1 (configuration not stated)
- GI50 (HS 578T breast): 25.7 µM
- TGI (HS 578T breast): > 100 µM
- GI50 (LOX IMVI melanoma): 30.5 µM
- TGI (LOX IMVI melanoma): > 100 µM
- GI50 (M14 melanoma): > 100 µM
- TGI (M14 melanoma): > 100 µM
- GI50 (NCI-H23 lung): 59.1 µM
- TGI (NCI-H23 lung): > 100 µM
- GI50 (OVCAR-3 ovarian): > 100 µM
- TGI (OVCAR-3 ovarian): > 100 µM
- GI50 (SF-268 CNS): 62.1 µM
- TGI (SF-268 CNS): > 100 µM
- GI50 (SK-MEL-2 melanoma): 43.9 µM
- TGI (SK-MEL-2 melanoma): > 100 µM
- GI50 (SK-MEL-28 melanoma): > 100 µM
- TGI (SK-MEL-28 melanoma): > 100 µM
- GI50 (SN12C renal): > 100 µM
- TGI (SN12C renal): > 100 µM

SMILES: CC(NNC(=S)N1CCN(c2ccccn2)CC1)c1cccc[n+]1[O-] (configuration not stated)
- TGI (HS 578T breast): > 100 µM
- TGI (LOX IMVI melanoma): 39.1 µM
- TGI (M14 melanoma): > 100 µM
- TGI (NCI-H23 lung): > 100 µM
- TGI (OVCAR-3 ovarian): > 100 µM
- TGI (OVCAR-8 ovarian): > 100 µM
- TGI (SF-268 CNS): > 100 µM
- TGI (SK-MEL-28 melanoma): > 100 µM
- TGI (SN12C renal): > 100 µM

SMILES: CC(C)(C)c1cc(C#N)c2c(c1)C(=O)OC2(c1ccccc1)c1ccccc1C#N (configuration not stated)
- TGI (LOX IMVI melanoma): > 100 µM
- TGI (M14 melanoma): > 100 µM
- TGI (NCI-H23 lung): > 100 µM
- TGI (OVCAR-3 ovarian): > 100 µM
- TGI (OVCAR-8 ovarian): > 100 µM
- TGI (SF-268 CNS): > 100 µM
- TGI (SK-MEL-2 melanoma): > 100 µM
- TGI (SK-MEL-28 melanoma): > 100 µM
- TGI (SN12C renal): > 100 µM

SMILES: CCCCCC/C=C\CCCCCCCCCc1cccc(OC)c1O
- TGI (HS 578T breast): > 100 µM
- TGI (LOX IMVI melanoma): > 100 µM
- TGI (M14 melanoma): > 100 µM
- TGI (NCI-H23 lung): > 100 µM
- TGI (OVCAR-8 ovarian): > 100 µM
- TGI (SF-268 CNS): > 100 µM
- TGI (SK-MEL-2 melanoma): > 100 µM
- TGI (SK-MEL-28 melanoma): > 100 µM
- TGI (SN12C renal): > 100 µM
